Laboratory results published in patent US20200085789A1, “USE OF A PROTEASOME INHIBITOR FOR THE TREATMENT OF CENTRAL NERVOUS SYSTEM (CNS) CANCERS” (Celgene International II Sàrl, priority 2017, published 2020).

Assays:
[1] = system: WHO Grade IV malignant glioma; experiment: Tumor response by RANO criteria, MRZ ± BEV in recurrent grade IV malignant glioma patients; assay type: in vivo, human; conditions: for Best Response CR (0), patients / Best Response PD (19), patients / Best Response PR (1), patients / Best Response SD (8), patients: Monotherapy ITT; for SPD: Monotherapy
Protocol: Tumor response was measured every other cycle by RANO criteria.
The drugs were infused on 28-Day Cycles. Tumor response is assessed every other cycle by RANO criteria.
Assessment will include MRI scans at the end of every even numbered cycle (±7 days) using RANO 2010 criteria for assessment.

[2] = Adverse events and DLT, MRZ with TMZ and RT in newly diagnosed WHO Grade IV malignant glioma; assay type: in vivo, human
Protocol: The clinical trial was a dose-escalation study (Stage 1, MRZ+TMZ+RT or MRZ+TMZ) consisting of two arms—concomitant and adjuvant—in each, MRZ added to standard of care at increasing IV doses in a 3+3 design, and a dose expansion study at RP2D (Stage 2, RP2D MRZ+TMZ+RT followed by RP2D MRZ+TMZ) first with concomitant and then with adjuvant standard of care.
In the experimental Stage 1 Concomitant Treatment (MRZ+TMZ+RT) Drug MRZ dose ranges from 0.55 mg/m^2 to 1.0 mg/m^2 given IV over 10 minutes on days 1, 8, 15, 29, and 36 during concomitant treatment. MRZ dose ranges from 0.55 to 1.0 mg/m^2 given IV over 10 minutes on Days 1, 8, 15 every 28 days during adjuvant treatment. TMZ will be administered once daily, 7 days/week, for 6 weeks, starting on Day 1, at a dose of 75 mg/m^2 during concomitant treatment. TMZ will be administered once daily on days 1-5 every cycle (28 day cycles, up to 12 cycles), dose range 150 to 200 mg/m^2 during adjuvant treatment. Radiation (RT) will be administered once daily 5 days/week, for 30 doses over 6 weeks to a total dose of 60 Gy, staring on Day 1 during concomitant treatment. Patients who complete concomitant treatment may continue on to adjuvant treatment, in the adjuvant cohort RT and TMZ treatment is received outside of protocol therapy.
In the experimental Stage 2 dose expansion 18 additional evaluable patients were enrolled in a cohort in which concomitant treatment (MRZ+TMZ+RT) is followed by adjuvant treatment (MRZ+TMZ) to confirm the MTD for each treatment regime as determined in the dose-escalation (Stage 1), and to assess preliminary activity of the recommended Phase 2 dose (RP2D, 0.8 mg/m^2). Table 44 and Table 45 give the treatment parameters of the present study and demographics of study participants.
Methods: Patients enrolled in separate concomitant (TMZ+RT+MRZ at 0.55, 0.7, 0.8, and 1.0 mg/m^2 dose levels DL) and adjuvant (TMZ+MRZ) cohorts in 3+3 design, followed by dose-expansion at the RD (concomitant followed by adjuvant). MRZ (10 min IV infusion): Concomitant (42 days (D), on D1, 8, 15, 29, 36; Adjuvant (28D-cycle) on D1, 8, 15.
Outcome Measures: Primary Outcome Measures: (1) Determine MRZ maximum tolerated dose (MTD) and recommended phase 2 dose (RP2D) for both concomitant treatment (MRZ+TMZ+RT) and adjuvant treatment (MRZ+TMZ). Time Frame: 42-day concomitant treatment and 28-day Cycle 1 adjuvant treatment. Description: Assess dose-limiting toxicities (DLTs) in each dose-escalation arm.
Methods: Patients enrolled in separate concomitant (TMZ/RT+MRZ) and adjuvant (TMZ+MRZ) treatment cohorts in dose-escalation (3+3 design, MRZ at 0.55, 0.7, 0.8, and 1.0 mg/m^2), followed by dose-expansion at the RD in concomitant followed by adjuvant treatment. MRZ (10 min IV infusion): Concomitant Day 1, 8, 15, 29, 36; Adjuvant (28D-cycle) Day 1, 8, 15.

[3] = Phase 2 monotherapy, of 30 patients
[4] = Cohorts 1-3 0.55, 0.7, 0.8 mg/m^2 (21)
[5] = all grades, Cohort 2 0.7 mg/m^2 (9), concomitant and adjuvant combined
[6] = all grades, Cohort 3 0.8 mg/m^2 (6), concomitant and adjuvant combined
[7] = all grades, Cohort 4 1.0 mg/m^2 (12), concomitant and adjuvant combined
[8] = all grades, all dose-escalation cohorts 0.55-1.0 mg/m^2, N = 33, concomitant and adjuvant combined

## C[C@@]12OC(=O)[C@]1([C@@H](O)[C@@H]1C=CCCC1)NC(=O)[C@@H]2CCCl [MRZ, marizomib]
[1]; Methylated N = 7
  Best Response CR (0), patients: 0
  Best Response PD (19), patients: 4
  Best Response PR (1), patients: 0
  Best Response SD (8), patients: 3
[1]; Unknown N = 5
  Best Response CR (0), patients: 0
  Best Response PD (19), patients: 3
  Best Response PR (1), patients: 0
  Best Response SD (8), patients: 1
[1]; Unmethylated N = 18
  Best Response CR (0), patients: 0
  Best Response PD (19), patients: 12
  Best Response PR (1), patients: 1
  Best Response SD (8), patients: 4
[1]; Pt 0511, Screening SPD 703.47
  SPD: 231.3
[1]; Pt 0515, Screening SPD 199.6
  SPD: 259.5
[1]; Pt 0521, Screening SPD 836.44
  SPD: 832.82
[1]; Phase 2 monotherapy 0.8 mg/m^2, 30 patients
  overall response rate: 3%
[1]; [3]
  partial response, patients: 1
  progressive disease, patients: 19
[1]; marizomib alone
  disease course in most patients: rapid progression
[2]; 33 patients, dose-escalation
  Most common TEAEs (≥20% patients): fatigue, nausea, vomiting, hallucination, ataxia, headache
[2]
  Anorexia, Total # Patients with Grade 3 Event: 0
  Ataxia, Total # Patients with Grade 3 Event: 3
  Confusion, Total # Patients with Grade 3 Event: 2
  Constipation, Total # Patients with Grade 3 Event: 0
  Diarrhea, Total # Patients with Grade 3 Event: 0
  Dizziness, Total # Patients with Grade 3 Event: 0
  Fatigue, Total # Patients with Grade 3 Event: 2
  Hallucination, Total # Patients with Grade 3 Event: 0
  Headache, Total # Patients with Grade 3 Event: 2
  Nausea, Total # Patients with Grade 3 Event: 0
  Vomiting, Total # Patients with Grade 3 Event: 0
[2]; [4]
  Anorexia, Total # Patients with Grade 3 Event: 0
  Ataxia, Total # Patients with Grade 3 Event: 1
  Confusion, Total # Patients with Grade 3 Event: 0
  Constipation, Total # Patients with Grade 3 Event: 0
  Diarrhea, Total # Patients with Grade 3 Event: 0
  Dizziness, Total # Patients with Grade 3 Event: 0
  Fatigue, Total # Patients with Grade 3 Event: 5
  Hallucination, Total # Patients with Grade 3 Event: 1
  Headache, Total # Patients with Grade 3 Event: 0
  Nausea, Total # Patients with Grade 3 Event: 0
  Vomiting, Total # Patients with Grade 3 Event: 1
[2]; MRZ 0.7 mg/m^2, of 9 (Example 6)
  patients with at least one Grade ≥3 TEAE: 2
[2]; MRZ 0.7 mg/m^2, of 9, as of Feb. 1, 2018
  patients with Grade 3 TEAEs: 4
[2]; MRZ 0.8 mg/m^2, of 6 (Example 6)
  patients with at least one Grade ≥3 TEAE: 1
[2]; MRZ 0.8 mg/m^2, of 6, as of Feb. 1, 2018
  patients with Grade 3 TEAEs: 2
[2]; MRZ 1.0 mg/m^2, concomitant and adjuvant
  patients with DLTs: 5/12
[2]; MRZ 1.0 mg/m^2, of 12
  patients with at least one Grade ≥3 TEAE: 11
[2]; MRZ with SOC in ndGBM
  tolerability: well tolerated
[2]; [5]
  Anorexia, incidence of treatment-related adverse event: 3
  Ataxia, incidence of treatment-related adverse event: 1
  Confusion, incidence of treatment-related adverse event: 4
  Constipation, incidence of treatment-related adverse event: 6
  Diarrhea, incidence of treatment-related adverse event: 2
  Dizziness, incidence of treatment-related adverse event: 2
  Fatigue, incidence of treatment-related adverse event: 8
  Hallucination, incidence of treatment-related adverse event: 4
  Headache, incidence of treatment-related adverse event: 3
  Nausea, incidence of treatment-related adverse event: 4
  Vomiting, incidence of treatment-related adverse event: 4
[2]; [6]
  Anorexia, incidence of treatment-related adverse event: 2
  Ataxia, incidence of treatment-related adverse event: 1
  Confusion, incidence of treatment-related adverse event: 1
  Constipation, incidence of treatment-related adverse event: 2
  Diarrhea, incidence of treatment-related adverse event: 2
  Dizziness, incidence of treatment-related adverse event: 1
  Fatigue, incidence of treatment-related adverse event: 5
  Hallucination, incidence of treatment-related adverse event: 2
  Headache, incidence of treatment-related adverse event: 2
  Nausea, incidence of treatment-related adverse event: 5
  Vomiting, incidence of treatment-related adverse event: 4
[2]; [7]
  Anorexia, incidence of treatment-related adverse event: 1
  Ataxia, incidence of treatment-related adverse event: 4
  Confusion, incidence of treatment-related adverse event: 3
  Constipation, incidence of treatment-related adverse event: 4
  Diarrhea, incidence of treatment-related adverse event: 1
  Dizziness, incidence of treatment-related adverse event: 1
  Fatigue, incidence of treatment-related adverse event: 8
  Hallucination, incidence of treatment-related adverse event: 4
  Headache, incidence of treatment-related adverse event: 4
  Nausea, incidence of treatment-related adverse event: 5
  Vomiting, incidence of treatment-related adverse event: 4
[2]; [8]
  Anorexia, treatment-related adverse event, total in parentheses: Anorexia (8)
  Ataxia, treatment-related adverse event, total in parentheses: Ataxia (8)
  Confusion, treatment-related adverse event, total in parentheses: Confusion (9)
  Constipation, treatment-related adverse event, total in parentheses: Constipation (11)
  Diarrhea, treatment-related adverse event, total in parentheses: Diarrhea (7)
  Dizziness, treatment-related adverse event, total in parentheses: Dizziness (6)
  Fatigue, treatment-related adverse event, total in parentheses: Fatigue (26)
  Hallucination, treatment-related adverse event, total in parentheses: Hallucination (11)
  Headache, treatment-related adverse event, total in parentheses: Headache (10)
  Nausea, treatment-related adverse event, total in parentheses: Nausea (17)
  Vomiting, treatment-related adverse event, total in parentheses: Vomiting (12)
[2]; with TMZ and RT (SOC), ndGBM
  RP2D / recommended dose (RD) of MRZ: 0.8 mg/m^2
